Where only a bound is given, the exact number is not on record here.

Data on 29 compounds can be found in US20230148214A1, “INDAZOLES AND AZAINDAZOLES AS LRRK2 INHIBITORS” (ESCAPE Bio, Inc., priority 2020, published 2023).

T1 sequence (Q5S007 whole entry): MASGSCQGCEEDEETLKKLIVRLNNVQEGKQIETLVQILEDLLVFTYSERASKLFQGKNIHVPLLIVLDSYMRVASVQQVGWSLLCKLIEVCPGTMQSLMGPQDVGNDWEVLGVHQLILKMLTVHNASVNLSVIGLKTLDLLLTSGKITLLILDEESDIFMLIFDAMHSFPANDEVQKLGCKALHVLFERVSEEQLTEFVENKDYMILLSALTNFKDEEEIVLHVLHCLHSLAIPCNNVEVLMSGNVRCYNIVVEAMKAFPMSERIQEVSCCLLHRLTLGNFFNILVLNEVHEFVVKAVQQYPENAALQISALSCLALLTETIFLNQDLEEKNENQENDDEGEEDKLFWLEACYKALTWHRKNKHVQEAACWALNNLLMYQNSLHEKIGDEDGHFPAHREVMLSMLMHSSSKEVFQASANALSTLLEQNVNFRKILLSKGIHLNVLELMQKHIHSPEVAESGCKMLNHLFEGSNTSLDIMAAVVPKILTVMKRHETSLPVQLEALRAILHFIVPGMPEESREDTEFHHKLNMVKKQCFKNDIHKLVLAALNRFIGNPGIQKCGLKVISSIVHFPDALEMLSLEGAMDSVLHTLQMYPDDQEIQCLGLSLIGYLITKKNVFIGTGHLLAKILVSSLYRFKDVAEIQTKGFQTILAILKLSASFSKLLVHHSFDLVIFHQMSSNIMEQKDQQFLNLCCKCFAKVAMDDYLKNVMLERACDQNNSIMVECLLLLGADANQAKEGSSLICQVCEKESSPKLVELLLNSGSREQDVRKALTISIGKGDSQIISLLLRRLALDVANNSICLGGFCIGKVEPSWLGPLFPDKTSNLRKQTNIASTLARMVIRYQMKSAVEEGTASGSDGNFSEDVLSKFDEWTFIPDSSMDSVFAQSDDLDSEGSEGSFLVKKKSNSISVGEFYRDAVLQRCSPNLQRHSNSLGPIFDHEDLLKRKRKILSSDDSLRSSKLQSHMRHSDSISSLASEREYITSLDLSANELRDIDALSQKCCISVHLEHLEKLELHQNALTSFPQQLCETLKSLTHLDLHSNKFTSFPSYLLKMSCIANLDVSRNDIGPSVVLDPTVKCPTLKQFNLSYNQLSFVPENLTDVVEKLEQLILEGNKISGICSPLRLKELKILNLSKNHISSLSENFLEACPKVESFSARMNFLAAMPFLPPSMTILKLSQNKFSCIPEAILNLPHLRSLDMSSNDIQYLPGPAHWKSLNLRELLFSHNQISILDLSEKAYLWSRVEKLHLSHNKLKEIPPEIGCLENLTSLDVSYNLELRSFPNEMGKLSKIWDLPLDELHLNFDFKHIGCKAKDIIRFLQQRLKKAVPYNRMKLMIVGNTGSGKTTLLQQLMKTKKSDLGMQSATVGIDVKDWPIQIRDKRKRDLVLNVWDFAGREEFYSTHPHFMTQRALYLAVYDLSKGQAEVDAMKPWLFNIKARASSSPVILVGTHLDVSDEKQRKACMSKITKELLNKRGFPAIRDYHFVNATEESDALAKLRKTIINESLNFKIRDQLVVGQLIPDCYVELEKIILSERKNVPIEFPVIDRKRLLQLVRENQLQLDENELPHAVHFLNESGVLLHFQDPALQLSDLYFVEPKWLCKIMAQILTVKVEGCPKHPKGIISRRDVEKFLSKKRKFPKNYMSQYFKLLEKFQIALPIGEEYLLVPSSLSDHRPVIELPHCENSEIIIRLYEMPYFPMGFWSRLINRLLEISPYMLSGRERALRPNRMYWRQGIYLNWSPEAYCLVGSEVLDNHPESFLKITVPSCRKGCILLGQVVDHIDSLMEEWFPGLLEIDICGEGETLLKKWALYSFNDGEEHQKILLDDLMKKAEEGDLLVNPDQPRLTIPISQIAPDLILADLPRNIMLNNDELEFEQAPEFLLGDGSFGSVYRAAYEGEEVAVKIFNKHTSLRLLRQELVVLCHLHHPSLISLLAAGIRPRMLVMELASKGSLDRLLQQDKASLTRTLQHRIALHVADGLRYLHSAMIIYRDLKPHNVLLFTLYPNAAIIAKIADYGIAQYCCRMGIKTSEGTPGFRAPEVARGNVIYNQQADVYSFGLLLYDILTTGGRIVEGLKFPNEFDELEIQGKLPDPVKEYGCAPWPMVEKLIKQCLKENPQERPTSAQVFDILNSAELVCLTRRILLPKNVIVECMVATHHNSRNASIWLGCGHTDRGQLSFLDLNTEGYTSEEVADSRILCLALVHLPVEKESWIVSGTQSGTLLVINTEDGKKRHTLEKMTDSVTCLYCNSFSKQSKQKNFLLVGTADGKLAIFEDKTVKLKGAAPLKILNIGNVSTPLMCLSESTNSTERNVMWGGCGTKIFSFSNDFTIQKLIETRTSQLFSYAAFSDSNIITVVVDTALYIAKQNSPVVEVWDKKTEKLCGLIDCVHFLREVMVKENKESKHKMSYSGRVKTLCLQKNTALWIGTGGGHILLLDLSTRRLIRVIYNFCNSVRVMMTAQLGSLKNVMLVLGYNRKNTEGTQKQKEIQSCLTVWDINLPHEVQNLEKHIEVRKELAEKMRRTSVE

This test has as its target T1, LRRK2 WT (Homo sapiens, UniProt Q5S007).
T1 construct: purchased Life Technologies PR8604B
The experiment in a line: LRRK2 Kinase Activity Assay (LanthaScreen TR-FRET), wild type. Format: biochemical. The note with it: recombinant wild type LRRK2, 25 μM ATP, 400 nM LRRKtide, 60 min; class symbols. The method, then:
LRRK2 kinase activity was measured using a LanthaScreen™ Kinase Activity Assay from ThermoFisher Scientific. Recombinant wild type or G2019S-LRRK2 protein (Life Technologies, PR8604B or PV4881, respectively), was incubated with a fluorescein-labeled peptide substrate called LRRKtide that is based upon ezrin/radixin/moesin (ERM) (Life Technologies, PV4901) in the presence of ATP and serially diluted compound. […] Compound-dependent inhibition of the TR-FRET signal was used to generate a concentration-response curve for IC50 determination.
After 60 min incubation at room temperature, the reaction was stopped by addition of 10 μL of 2×stop solution containing a final concentration of 2 nM anti-pERM antibody and 10 mM EDTA.
Background: In TR-FRET formats the signal depends on donor and acceptor labels being close together.
`N#Cc1cc2c(nc1Cl)[C@@H](Oc1ccc3[nH]nc(-c4cnco4)c3c1)CCC2` (single isomer, unassigned) [177, enantiomer 2, 2-Chloro-8-((3-(oxazol-5-yl)-1H-indazol-5-yl)oxy)-5,6,7,8-tetrahydroquinoline-3-carbonitrile]: the IC50 is less than 100 nM.

Consider `N#Cc1cc2c(nc1Cl)[C@@H](Oc1ccc3[nH]nc(-c4cnoc4)c3c1)CCC2` (single isomer, unassigned) [178, enantiomer 2, 2-Chloro-8-[[3-(1,2-oxazol-4-yl)-1H-indazol-5-yl]oxy]-5,6,7,8-tetrahydroquinoline-3-carbonitrile], for which the half-inhibitory concentration (IC50) was less than 100 nM.

`N#Cc1cc2c(cc1F)[C@@H](Oc1ccc3[nH]nc(-c4cnco4)c3c1)CCC2` (single isomer, unassigned) [180, enantiomer 2, 3-Fluoro-5-[[3-(1,3-oxazol-5-yl)-1H-indazol-5-yl]oxy]-5,6,7,8-tetrahydronaphthalene-2-carbonitrile]: the IC50 is less than 100 nM.

For the compound `N#Cc1cnc2c(n1)CC[C@@H]2Oc1ccc2[nH]nc(-c3cnco3)c2c1` (single isomer, unassigned) [182, enantiomer 2, 5-((3-(Oxazol-5-yl)-1H-indazol-5-yl)oxy)-6,7-dihydro-5H-cyclopenta[b]pyrazine-2-carbonitrile], the IC50 was less than 100 nM.

For `N#Cc1cnc2c(c1)CCC[C@@H]2Oc1ccc2[nH]nc(-c3cnoc3)c2c1` (single isomer, unassigned) [Example 2, enantiomer 2, 8-((3-(Isoxazol-4-yl)-1H-indazol-5-yl)oxy)-5,6,7,8-tetrahydroquinoline-3-carbonitrile], the IC50 is less than 100 nM.

On to `N#Cc1ccc2c(c1)CCC2Oc1ccc2[nH]nc(-c3cnco3)c2c1` (single isomer, unassigned) [Example 3, enantiomer 2, 1-((3-(Oxazol-5-yl)-1H-indazol-5-yl)oxy)-2,3-dihydro-1H-indene-5-carbonitrile], for which the IC50 is less than 100 nM.

In the case of `N#Cc1ccc2c(c1)CC[C@@H]2Oc1ccc2[nH]nc(-c3cnn(C(F)F)c3)c2c1` (single isomer, unassigned) [Example 4, enantiomer 2, 1-((3-(1-(Difluoromethyl)-1H-pyrazol-4-yl)-1H-indazol-5-yl)oxy)-2,3-dihydro-1H-indene-5-carbonitrile], the IC50 is less than 100 nM.

Consider `N#Cc1ccc2c(c1)CC[C@@H]2Oc1ccc2[nH]nc(-c3cnoc3)c2c1` (single isomer, unassigned) [Example 5, enantiomer 2, 1-((3-(Isoxazol-4-yl)-1H-indazol-5-yl)oxy)-2,3-dihydro-1H-indene-5-carbonitrile], for which the IC50 is less than 100 nM.

`N#Cc1ccc2c(c1)CC[C@@H]2Nc1ccc2[nH]nc(-c3cnoc3)c2c1` (single isomer, unassigned) [Example 8, enantiomer 2, 1-((3-(Isoxazol-4-yl)-1H-indazol-5-yl)amino)-2,3-dihydro-1H-indene-5-carbonitrile]: the IC50 was less than 100 nM.

As for `N#Cc1ccc2c(c1)CC[C@@H]2Nc1ccc2[nH]nc(-c3cnco3)c2c1` (single isomer, unassigned) [Example 9, enantiomer 2, 1-((3-(Oxazol-5-yl)-1H-indazol-5-yl)amino)-2,3-dihydro-1H-indene-5-carbonitrile], the IC50 is less than 100 nM.

Consider `N#Cc1ccc2c(c1)CC[C@@H]2Nc1ccc2[nH]nc(-c3ccoc3)c2c1` (single isomer, unassigned) [Example 11, enantiomer 2, 1-((3-(Furan-3-yl)-1H-indazol-5-yl)amino)-2,3-dihydro-1H-indene-5-carbonitrile], for which the IC50 is less than 100 nM.

Take `N#Cc1ccc2c(c1)CC[C@@H]2Nc1ccc2[nH]nc(-c3cnn(C(F)F)c3)c2c1` (single isomer, unassigned) [Example 12, enantiomer 2, 1-((3-(1-(Difluoromethyl)-1H-pyrazol-4-yl)-1H-indazol-5-yl)amino)-2,3-dihydro-1H-indene-5-carbonitrile]: the IC50 was less than 100 nM.

With `Cc1cc(C#N)cc2c1[C@@H](Oc1ccc3[nH]nc(-c4cnco4)c3c1)CC2` (single isomer, unassigned) [Example 14, enantiomer 2, 7-Methyl-1-((3-(oxazol-5-yl)-1H-indazol-5-yl)oxy)-2,3-dihydro-1H-indene-5-carbonitrile], the IC50 was less than 100 nM.

In the case of `N#Cc1cnc2c(c1)CCC[C@@H]2Oc1ccc2[nH]nc(-c3cnco3)c2c1` (single isomer, unassigned) [Example 16, enantiomer 2, 8-((3-(Oxazol-5-yl)-1H-indazol-5-yl)oxy)-5,6,7,8-tetrahydroquinoline-3-carbonitrile], the IC50 was less than 100 nM.

Consider `N#Cc1ccc2c(c1)CCC[C@@H]2Oc1ccc2[nH]nc(-c3cnco3)c2c1` (single isomer, unassigned) [Example 18, enantiomer 2, 5-((3-(Oxazol-5-yl)-1H-indazol-5-yl)oxy)-5,6,7,8-tetrahydronaphthalene-2-carbonitrile], for which the IC50 is less than 100 nM.

Regarding `Cc1c(C#N)ccc2c1CC[C@@H]2Oc1ccc2[nH]nc(-c3cnco3)c2c1` (single isomer, unassigned) [Example 22, enantiomer 2, 4-Methyl-1-((3-(oxazol-5-yl)-1H-indazol-5-yl)oxy)-2,3-dihydro-1H-indene-5-carbonitrile], the IC50 is less than 100 nM.

As for `N#Cc1cc2c(cc1F)[C@@H](Oc1ccc3[nH]nc(-c4cnco4)c3c1)CC2` (single isomer, unassigned) [Example 23, enantiomer 2, 6-Fluoro-1-((3-(oxazol-5-yl)-1H-indazol-5-yl)oxy)-2,3-dihydro-1H-indene-5-carbonitrile], the IC50 is less than 100 nM.

Consider `N#Cc1ccc2c(c1F)CC[C@@H]2Oc1ccc2[nH]nc(-c3cnco3)c2c1` (single isomer, unassigned) [Example 24, enantiomer 2, 4-Fluoro-1-((3-(oxazol-5-yl)-1H-indazol-5-yl)oxy)-2,3-dihydro-1H-indene-5-carbonitrile], for which the IC50 is less than 100 nM.

Consider `N#Cc1cc2c(cc1F)[C@@H](Nc1ccc3[nH]nc(-c4cnco4)c3c1)CC2` (single isomer, unassigned) [Example 25, enantiomer 2, 6-Fluoro-1-((3-(oxazol-5-yl)-1H-indazol-5-yl)amino)-2,3-dihydro-1H-indene-5-carbonitrile], for which the IC50 is less than 100 nM.

For `N#Cc1ccc2c(c1F)CC[C@@H]2Nc1ccc2[nH]nc(-c3cnco3)c2c1` (single isomer, unassigned) [Example 26, enantiomer 2, 4-Fluoro-1-((3-(oxazol-5-yl)-1H-indazol-5-yl)amino)-2,3-dihydro-1H-indene-5-carbonitrile], the IC50 was less than 100 nM.

With `Cc1c(C#N)ccc2c1CC[C@@H]2Nc1ccc2[nH]nc(-c3cnco3)c2c1` (single isomer, unassigned) [Example 27, enantiomer 2, 4-methyl-1-((3-(oxazol-5-yl)-1H-indazol-5-yl)amino)-2,3-dihydro-1H-indene-5-carbonitrile], the IC50 was less than 100 nM.

In the case of `Cc1cc2c(cc1C#N)CC[C@@H]2Nc1ccc2[nH]nc(-c3cnco3)c2c1` (single isomer, unassigned) [Example 28, enantiomer 2, 6-Methyl-1-((3-(oxazol-5-yl)-1H-indazol-5-yl)amino)-2,3-dihydro-1H-indene-5-carbonitrile], the IC50 is less than 100 nM.

Turning to `Cc1cc2c(cc1C#N)CC[C@H]2Oc1ccc2[nH]nc(-c3cnco3)c2c1` (single isomer, unassigned) [Example 29, enantiomer 2, 6-Methyl-1-((3-(oxazol-5-yl)-1H-indazol-5-yl)oxy)-2,3-dihydro-1H-indene-5-carbonitrile], the IC50 is less than 100 nM.

Regarding `N#Cc1cccc2c1[C@@H](Oc1ccc3[nH]nc(-c4cnco4)c3c1)CC2` (single isomer, unassigned) [Example 37, enantiomer 2, 3-((3-(Oxazol-5-yl)-1H-indazol-5-yl)oxy)-2,3-dihydro-1H-indene-4-carbonitrile], the IC50 is less than 100 nM.

In the case of `N#Cc1ccc2c(c1)CCC[C@@H]2Oc1ccc2[nH]nc(-c3ccnc(N4CCOCC4)c3)c2c1` (single isomer, unassigned) [Example 39, enantiomer 2, 5-((3-(2-Morpholinopyridin-4-yl)-1H-indazol-5-yl)oxy)-5,6,7,8-tetrahydronaphthalene-2-carbonitrile], the IC50 was less than 100 nM.

In the case of `COc1cc(-c2n[nH]c3ccc(N[C@H]4CCc5cc(C#N)ccc54)cc23)ccn1` (single isomer, unassigned) [Example 40, enantiomer 2, 1-((3-(2-Methoxypyridin-4-yl)-1H-indazol-5-yl)amino)-2,3-dihydro-1H-indene-5-carbonitrile], the IC50 was less than 100 nM.

Regarding `N#Cc1cc2c(nn1)[C@@H](Oc1ccc3[nH]nc(-c4cnco4)c3c1)CC2` (single isomer, unassigned) [Example 41, enantiomer 2, 7-((3-(Oxazol-5-yl)-1H-indazol-5-yl)oxy)-6,7-dihydro-5H-cyclopenta[c]pyridazine-3-carbonitrile], the IC50 is less than 100 nM.

Turning to `N#Cc1ccc2c(c1)CC(F)(F)[C@@H]2Nc1ccc2[nH]nc(-c3cnco3)c2c1` (single isomer, unassigned) [Example 42, enantiomer 2, 2,2-Difluoro-1-((3-(oxazol-5-yl)-1H-indazol-5-yl)amino)-2,3-dihydro-1H-indene-5-carbonitrile], the IC50 is less than 100 nM.

As to `N#Cc1cnc2c(c1)C1CC1[C@@H]2Nc1ccc2[nH]nc(-c3cnco3)c2c1` (single isomer, unassigned) [Example 48, enantiomer 2, 6-((3-(Oxazol-5-yl)-1H-indazol-5-yl)amino)-4b,5,5a,6-tetrahydrocyclopropa[3,4]cyclopenta[1,2-b]pyridine-3-carbonitrile], the IC50 was less than 100 nM.

What is called IC50 is the concentration that inhibits the measured activity by half.
